Data from patent US11987559B1, “1-(4-bromobenzylideneamino)-5-phenylimidazolidine-2,4-dione as an antimicrobial compound” (KING FAISAL UNIVERSITY, priority 2023, dated 2024).

What was measured:
Format in all cases: cell-based
Bacillus cereus = test: agar plate disc-diffusion, antibacterial inhibition zone; conditions: nutrient agar, 37° C., 48 hours
Protocol: (§1) The agar plate disc-diffusion method was applied. […] The discs were then placed onto the surface of agar plates (nutrient agar for bacteria and Sabouraud's dextrose agar for fungi) seeded with the test organism. Each plate contained 15 mL of the agar medium, previously seeded with 0.2 mL of the broth culture of each organism pregrown for 18 hours. The plates were incubated at 37° C. for 48 hours, and 72 hours for fungi. The inhibition zones were measured in millimeters (mm). Discs impregnated with DMSO were used as a control, and its inhibition zone was subtracted from the tested compound's actual inhibition zone.

Escherichia coli = test: as above; conditions: nutrient agar, 37° C., 48 hours
Protocol: as §1

Pseudomonas aeruginosa = test: as above; conditions: nutrient agar, 37° C., 48 hours
Protocol: as §1

Staphylococcus aureus = test: as above; conditions: nutrient agar, 37° C., 48 hours
Protocol: as §1

Aspergillus flavus = test: agar plate disc-diffusion, antifungal inhibition zone; conditions: Sabouraud's dextrose agar, 72 hours
Protocol: as §1

[1] = tested on: Chrysosporium keratinophilum; test: as above; conditions: Sabouraud's dextrose agar, 72 hours
Protocol: as §1

different microbes = test: antimicrobial testing, overall statement; conditions: result in words; bacteria and fungi of tables 1, 2
Protocol: The agar plate disc-diffusion method was applied. Sterilized filter papers (6 mm in diameter) were wetted with 10 μL of a solution of 1-(4-bromobenzylideneamino)-5-phenylimidazolidine-2,4-dione (4) to be tested, containing 10 mg/mL in DMSO, and the discs were allowed to air dry. The discs were then placed onto the surface of agar plates (nutrient agar for bacteria and Sabouraud's dextrose agar for fungi) seeded with the test organism. Each plate contained 15 mL of the agar medium, previously seeded with 0.2 mL of the broth culture of each organism pregrown for 18 hours. The plates were incubated at 37° C. for 48 hours, and 72 hours for fungi. The inhibition zones were measured in millimeters (mm). Discs impregnated with DMSO were used as a control, and its inhibition zone was subtracted from the tested compound's actual inhibition zone.

[2] = A = concentration of comp. = 10,000 μL
[3] = B = concentration of comp. = 30.000 μL
[4] = C = concentration of comp. = 50,000 μL

Row | Compound | inhibition zone (Bacillus cereus; [2]) [mm] | inhibition zone (Bacillus cereus; [3]) [mm] | inhibition zone (Bacillus cereus; [4]) [mm] | inhibition zone (Escherichia coli; [2]) [mm] | inhibition zone (Escherichia coli; [3]) [mm] | inhibition zone (Escherichia coli; [4]) [mm] | inhibition zone (Pseudomonas aeruginosa; [2]) [mm] | inhibition zone (Pseudomonas aeruginosa; [3]) [mm] | inhibition zone (Pseudomonas aeruginosa; [4]) [mm] | inhibition zone (Staphylococcus aureus; [2]) [mm] | inhibition zone (Staphylococcus aureus; [3]) [mm] | inhibition zone (Staphylococcus aureus; [4]) [mm] | inhibition zone (Aspergillus flavus; [2]) [mm] | inhibition zone (Aspergillus flavus; [3]) [mm] | inhibition zone (Aspergillus flavus; [4]) [mm] | inhibition zone [1, 2] [mm] | inhibition zone [1, 3] [mm] | inhibition zone [1, 4] [mm] | antimicrobials activities against different microbes (different microbes)
1 | O=C1NC(=O)N(/N=C/c2ccc(Br)cc2)C1c1ccccc1 (stereo not shown) [Compound 4, 1-(4-bromobenzylideneamino)-5-phenylimidazolidine-2,4-dione] | 27 | 29 | 28 | 24 | 30 | 48 | 23 | 27 | 34 | 15 | 23 | 26 | 19 | 24 | 35 | 26 | 29 | 45 | excellent
2 | O=C(O)c1cn(C2CC2)c2cc(N3CCNCC3)c(F)cc2c1=O [Cip., reference compound] | 29 | 30 | 42 | 30 | 39 | 60 | 29 | 30 | 53 | 43 | 44 | 53 | 29 | 30 | 42 | 29 | 30 | 53 | –
